Test results published in patent US4350695A, “Antihistaminic and bronchospasmolytic triazoloquinazolinones” (Roussel Uclaf, priority 1980, dated 1982).
≈ marks a conversion by molar mass, not a printed value. Counter-ions that a name gives are not always drawn.

Assays:
[1] = test system: isolated guinea pig tracheas; experiment: Effect on isolated guinea pig tracheas (histamine-induced contraction); assay type: cell-based; conditions: for EC50: Cavia porcellus, spirally cut trachea, Krebs Henseleit solution, 37° C., histamine as agonist, read-out: EC50 (amount required to reduce the histamine-induced contraction of the guinea pig trachea by 50%)
Procedure: B Effect on isolated guinea pig tracheas
Guinea pigs were killed by a blow on the back of the neck and the tracheas were excised, cut spirally and suspended in Krebs Henseleit solution at 37° C. and aerated with 95% O2 +5% CO2. Histamine was used as the agonist.

[2] = test system: histamine-induced bronchoconstriction; experiment: Effects on histamine-induced bronchoconstriction in anaesthetised guinea pigs; assay type: in vivo, guinea pig; conditions: for ED50: Cavia porcellus, iv, male anaesthetised guinea pigs, administered via cannulated left jugular vein immediately before histamine, read-out: ED50 (effective dose required to reduce the histamine-induced constriction in lung air volume by 50%); for antagonising the bronchoconstricting activity of histamine: anaesthetised guinea pigs, result in words
Procedure: A. Effects on histamine-induced bronchoconstriction in anaesthetised guinea pigs
Male guinea pigs weighing 300-400 grams, after overnight starving, were anaesthetised with intraperitoneal administration of 0.7 ml/100 g of urethane. The preparation was as described by Konsett et al [Arch. exp. Path. Pharmakol. […] (1940), p. 71] with a ventilatory pump stroke volume varying between 4 to 6 ml of air (adjusted for each animal) at a stroke rate of 80 per minute to maintain a lung inflation pressure of 7.5 cm of H2 O. Blood pressure was measured via a cannula in the right carotid artery connected to a Statham blood pressure transducer and a Devices M2 recorder. The test compounds were administered via the cannulated left jugular vein and washed in with 0.1 ml of 0.9% w/w sodium chloride in distilled water. The test product was administered immediately before the histamine which was used as the agonist.
Respiratory changes were recorded via a differential transducer connected to an SE 905 transducer/converter which in turn was connected to a Devices M2 recorder. The results given in Table I show the effective dose of each of the test compounds required to reduce the histamine-induced constriction in lung air volume by 50%.

EC50 [1] [µg/mL]	SMILES	ED50 [2] [mg/kg]	other results
	O=c1c2ccccc2nc2n(CCCCN3CCN(c4cccc(Cl)c4)CC3)cnn12 [1 and 2]		antagonistic effect, persistence ([1]; isolated guinea pig trachea, after compound washed out, result in words): very prolonged; time for which antagonistic effect could be demonstrated after the compound had been washed out ([1]; isolated guinea pig trachea, after wash-out): up to 30 minutes; antagonist of histamine induced contractions ([1]; isolated guinea pig trachea, result in words): potent antagonist
0.1	O=c1c2ccccc2nc2n(CCCCN3CCN(c4cccc(Cl)c4)CC3)cnn12 [Example 1 & 2, 1-{4-[4-(m-chlorophenyl)-piperazin-1-yl]-butyl}-triazolo-[1,2,4][5,1-b]-quinazolin-5(1H)-one dihydrochloride]	0.02	antagonising the bronchoconstricting activity of histamine [2]: very effective
	CCOC(=O)N1CCN(CCCCn2cnn3c(=O)c4cc(C)ccc4nc23)CC1 [Example 3, 1-{4-[4-(ethoxycarbonyl)-piperazin-1-yl]-butyl}-7-methyl[1,2,4] triazolo [5,1-b]-quinazolin-5(1H)-one dihydrochloride]	0.008	antagonising the bronchoconstricting activity of histamine [2]: very effective
10.2 (≈ 25 µM)	O=c1c2ccccc2nc2n(CCCCN3CCN(C4CCCCC4)CC3)cnn12 [Example 5]	0.9	
0.25 (≈ 0.591 µM)	O=c1c2ccccc2nc2n(CCCN3CCN(c4cccc(Cl)c4)CC3)cnn12 [Example 6]	0.03	
15 (≈ 48.2 µM)	O=c1c2ccccc2nc2n(CCCN3CCCCC3)cnn12 [Example 7]	0.3	
	O=c1c2ccccc2nc2n(CCCN3CCC(O)(c4ccccc4)CC3)cnn12 [Example 8]	2	
	O=c1c2cc([N+](=O)[O-])ccc2nc2n(CCCCN3CCN(c4cccc(Cl)c4)CC3)cnn12 [Example 10]	0.1	
	O=c1c2ccccc2nc2n(CCCCCN3CCN(c4cccc(Cl)c4)CC3)cnn12 [Example 11]	0.05	
16 (≈ 47.1 µM)	O=c1c2ccccc2nc2n(CCCCCN3CCCCC3)cnn12 [Example 12]	1	
	CCOC(=O)N1CCN(CCCCn2cnn3c(=O)c4ccccc4nc23)CC1 [Example 15, 1-{4-[4-(ethoxycarbonyl)-piperazin-1-yl]-butyl}-[1,2,4]-triazolo-[5,1-b]-quinazolin-5-(1H)-one]	0.05	
36 (≈ 111 µM)	O=c1c2ccccc2nc2n(CCCCN3CCCCC3)cnn12 [Example 24]	0.7	
	CCOC(=O)N1CCN(CCCn2cnn3c(=O)c4cc(C)ccc4nc23)CC1 [Example 34, 1-{3-[4-(ethoxycarbonyl)-piperazin-1-yl]-propyl}-7-methyl-[1,2,4]-triazolo-[5,1-b]-quinazolin-5-(1H)-one]	0.01	

SMILES	EC50 [1] [µg/mL]	ED50 [2] [mg/kg]	other results
O=c1c2ccccc2nc2n(CCCCN3CCC(O)(c4ccccc4)CC3)cnn12 [Example 4]	34 (≈ 81.4 µM)	0.3	
